Laboratory results reported in ChEMBL document CHEMBL1201862, “PubChem BioAssay data set” (2004).
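Five concentrations, 48 hours, 96-well plates. The concentration for 50% growth inhibition is given as GI50.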 Activity calls are given as the source filed them. No stated cut-off is given here; in the data, active = GI50 up to about 1.1 µM and inactive = higher.

What was measured:
Assay in all cases: inhibition of tumour cell growth, NCI panel, 48 h
[1] = tested on: SK-MEL-5
[2] = tested on: UACC-257
[3] = tested on: Malme-3M
[4] = tested on: OVCAR-4
[5] = tested on: 786-0
[6] = tested on: TK-10
[7] = tested on: SW-620
[8] = tested on: SK-MEL-28
[9] = tested on: NCI-H460
[10] = tested on: SF-295
[11] = tested on: SF-268
[12] = tested on: MCF7
[13] = tested on: A549
[14] = tested on: LOX IMVI
[15] = tested on: OVCAR-8
[16] = tested on: CCRF-CEM
[17] = tested on: HL-60
[18] = tested on: K562
[19] = tested on: MOLT-4
[20] = tested on: SR

Compound | GI50 [1] | GI50 [2] | GI50 [3] | GI50 [4] | GI50 [5] | GI50 [6] | GI50 [7] | GI50 [8] | GI50 [9] | GI50 [10] | GI50 [11] | GI50 [12] | GI50 [13] | GI50 [14] | GI50 [15] | GI50 [16] | GI50 [17] | GI50 [18] | GI50 [19] | GI50 [20]
CC1(C)[C@@H]2CC[C@]1(C)[C@H](OC(=O)CSC#N)C2 | > 100 µM (inactive) | > 100 µM (inactive) | > 100 µM (inactive) | > 100 µM (inactive) | 18.3 µM (inactive) | > 100 µM (inactive) | 17.9 µM (inactive) | > 100 µM (inactive) | > 100 µM (inactive) | > 100 µM (inactive) | > 100 µM (inactive) | 65.9 µM (inactive) | > 100 µM (inactive) | 35.2 µM (inactive) | 34.2 µM (inactive) |  |  |  |  | 
COC(=O)[C@]12CC3C=CC1N(C3)C(CBr)c1c2n(S(=O)(=O)c2ccccc2)c2ccccc12 (stereo partly drawn) | > 100 µM (inactive) | > 100 µM (inactive) | 72.9 µM (inactive) | 38.5 µM (inactive) | 43 µM (inactive) | > 100 µM (inactive) | > 100 µM (inactive) | > 100 µM (inactive) | 98.6 µM (inactive) | 42.2 µM (inactive) |  | 46.9 µM (inactive) | 50.5 µM (inactive) | 43.4 µM (inactive) | 49 µM (inactive) | 47.6 µM (inactive) | 35.1 µM (inactive) | 0.118 µM (active) |  | 
O=C(CCN1CCOCC1)c1ccc(Oc2ccc(F)cc2)cc1 | 31.3 µM (inactive) | 17.7 µM (inactive) | 20.4 µM (inactive) | 33.6 µM (inactive) | 17.1 µM (inactive) | 17.9 µM (inactive) | 30.3 µM (inactive) | 28 µM (inactive) | > 100 µM (inactive) | > 100 µM (inactive) |  | 18.7 µM (inactive) | > 100 µM (inactive) | 21.8 µM (inactive) | 19.4 µM (inactive) | 30.8 µM (inactive) | 35.5 µM (inactive) | 23.6 µM (inactive) | 23.7 µM (inactive) | 
COc1ccc(N2C=Nn3c(nc4sc(C)c(C)c4c3=O)C2)cc1 | > 100 µM (inactive) | > 100 µM (inactive) | > 100 µM (inactive) | > 100 µM (inactive) | 38.3 µM (inactive) | > 100 µM (inactive) | > 100 µM (inactive) | > 100 µM (inactive) | > 100 µM (inactive) | > 100 µM (inactive) | > 100 µM (inactive) | > 100 µM (inactive) | > 100 µM (inactive) | > 100 µM (inactive) | > 100 µM (inactive) | > 100 µM (inactive) |  | > 100 µM (inactive) | > 100 µM (inactive) | > 100 µM (inactive)
NNC1=Nc2ccc(Cl)cc2C(=S)N2CSCC12 (stereo not drawn) | > 100 µM (inactive) | > 100 µM (inactive) | > 100 µM (inactive) | > 100 µM (inactive) | > 100 µM (inactive) | > 100 µM (inactive) | > 100 µM (inactive) | > 100 µM (inactive) | > 100 µM (inactive) | > 100 µM (inactive) | > 100 µM (inactive) | > 100 µM (inactive) | > 100 µM (inactive) | > 100 µM (inactive) | > 100 µM (inactive) | > 100 µM (inactive) |  | > 100 µM (inactive) | > 100 µM (inactive) | > 100 µM (inactive)
C=C(CC[C@@H](C(=O)O)[C@H]1[C@H](O)C[C@@]2(C)C3=CC[C@@H](C(=C)C)[C@](C)(CCC(=O)O)C3=CC[C@]12C)C(C)C [PORICOIC ACID A] | 20.4 µM (inactive) | 16.4 µM (inactive) | 22.5 µM (inactive) | 21.1 µM (inactive) | 16.6 µM (inactive) | 17.8 µM (inactive) | 22.2 µM (inactive) | 19.4 µM (inactive) | 18.2 µM (inactive) | 17.5 µM (inactive) |  | 17.1 µM (inactive) | 18.7 µM (inactive) | 19.3 µM (inactive) | 19.5 µM (inactive) | 29.6 µM (inactive) | 15.9 µM (inactive) | 26.5 µM (inactive) | 22.1 µM (inactive) | 
CCCCCCCCCCCC(=O)OCC(O)CO (stereo not drawn) [GLYCEROL MONOLAURATE] | 59 µM (inactive) | > 100 µM (inactive) |  | > 100 µM (inactive) | > 100 µM (inactive) | > 100 µM (inactive) | > 100 µM (inactive) | > 100 µM (inactive) | 80.5 µM (inactive) | > 100 µM (inactive) | > 100 µM (inactive) | > 100 µM (inactive) | 54.1 µM (inactive) | 48.1 µM (inactive) | > 100 µM (inactive) | 42.7 µM (inactive) | 12.9 µM (inactive) |  | 37.1 µM (inactive) | 
CCOC(=O)C1=COC(C)(c2ccccc2)CC1=O (stereo not drawn) | > 100 µM (inactive) | > 100 µM (inactive) |  | > 100 µM (inactive) | > 100 µM (inactive) | > 100 µM (inactive) | > 100 µM (inactive) | > 100 µM (inactive) | > 100 µM (inactive) | > 100 µM (inactive) | > 100 µM (inactive) | > 100 µM (inactive) | > 100 µM (inactive) |  | > 100 µM (inactive) |  |  | > 100 µM (inactive) | 49.7 µM (inactive) | 
Cc1c(-c2nc3ccccc3[nH]2)c(=O)n(-c2ccccc2)n1C | > 100 µM (inactive) | > 100 µM (inactive) | > 100 µM (inactive) | > 100 µM (inactive) | > 100 µM (inactive) | > 100 µM (inactive) | > 100 µM (inactive) | > 100 µM (inactive) | > 100 µM (inactive) | > 100 µM (inactive) | > 100 µM (inactive) | > 100 µM (inactive) | > 100 µM (inactive) | > 100 µM (inactive) | > 100 µM (inactive) | > 100 µM (inactive) | > 100 µM (inactive) | > 100 µM (inactive) | > 100 µM (inactive) | 
O=C1CCCn2c(nc3ccccc32)N1 | > 100 µM (inactive) | > 100 µM (inactive) | > 100 µM (inactive) | > 100 µM (inactive) | > 100 µM (inactive) | > 100 µM (inactive) | > 100 µM (inactive) |  | > 100 µM (inactive) | > 100 µM (inactive) | > 100 µM (inactive) | > 100 µM (inactive) | > 100 µM (inactive) | > 100 µM (inactive) | > 100 µM (inactive) | > 100 µM (inactive) |  | > 100 µM (inactive) | > 100 µM (inactive) | > 100 µM (inactive)
O=[N+]([O-])c1cccc(-c2ncnc(-c3cccc([N+](=O)[O-])c3)n2)c1 | > 100 µM (inactive) | 38.7 µM (inactive) | > 100 µM (inactive) |  | 27.4 µM (inactive) | 44.5 µM (inactive) | > 100 µM (inactive) | > 100 µM (inactive) |  | 41.6 µM (inactive) | 54 µM (inactive) | > 100 µM (inactive) | > 100 µM (inactive) | > 100 µM (inactive) | > 100 µM (inactive) |  | 36.6 µM (inactive) | 48.6 µM (inactive) | > 100 µM (inactive) | 
CCCCCCCCCCCCCCN [TETRADECYLAMINE] | > 100 µM (inactive) | > 100 µM (inactive) | > 100 µM (inactive) | > 100 µM (inactive) | > 100 µM (inactive) | > 100 µM (inactive) | > 100 µM (inactive) | > 100 µM (inactive) | > 100 µM (inactive) | > 100 µM (inactive) | > 100 µM (inactive) | > 100 µM (inactive) |  | > 100 µM (inactive) | > 100 µM (inactive) | > 100 µM (inactive) | > 100 µM (inactive) | > 100 µM (inactive) | > 100 µM (inactive) | 
O/N=C1/COC(C(F)(F)F)(C(F)(F)F)C1 | > 100 µM (inactive) | > 100 µM (inactive) | > 100 µM (inactive) | > 100 µM (inactive) | > 100 µM (inactive) | > 100 µM (inactive) | > 100 µM (inactive) | > 100 µM (inactive) | > 100 µM (inactive) | > 100 µM (inactive) | > 100 µM (inactive) | > 100 µM (inactive) | > 100 µM (inactive) | > 100 µM (inactive) | > 100 µM (inactive) |  |  |  | > 100 µM (inactive) | 0.0573 µM (active)
CO[P@]1(=O)O[C@@H](c2ccccc2)[C@H](O)[C@]1(O)c1ccccc1 | > 100 µM (inactive) | > 100 µM (inactive) | > 100 µM (inactive) | > 100 µM (inactive) | > 100 µM (inactive) | > 100 µM (inactive) | > 100 µM (inactive) | > 100 µM (inactive) | > 100 µM (inactive) | > 100 µM (inactive) | > 100 µM (inactive) | > 100 µM (inactive) | > 100 µM (inactive) | > 100 µM (inactive) | > 100 µM (inactive) | > 100 µM (inactive) | > 100 µM (inactive) | > 100 µM (inactive) |  | 
CC1CC(c2ccc([N+](=O)[O-])cc2)=Nc2ccccc2S1 (stereo not drawn) | 21.5 µM (inactive) | 18.7 µM (inactive) | 35.9 µM (inactive) | 16.7 µM (inactive) | 15.3 µM (inactive) | 28.2 µM (inactive) | 15.6 µM (inactive) | 17.9 µM (inactive) | 27.1 µM (inactive) | 19.1 µM (inactive) | 17.3 µM (inactive) |  | 21.9 µM (inactive) | 6.89 µM (inactive) | 25.9 µM (inactive) | 4.32 µM (inactive) | 7.45 µM (inactive) | 6.04 µM (inactive) | 18.1 µM (inactive) | 5.09 µM (inactive)
